Assay results from ChEMBL document CHEMBL1833864, “N'-(arylsulfonyl)pyrazoline-1-carboxamidines as novel, neutral 5-hydroxytryptamine 6 receptor (5-HT₆R) antagonists with unique structural features” (J Med Chem, 2011).

Assays:
in vitro [1] = details: human, hepatocytes
[2] = molecular target: 5-hydroxytryptamine receptor 6 (Homo sapiens, UniProt P50406); experiment: Displacement of [3H]-methyllysergic acid diethylamide from human 5-HT6 receptor expressed in CHO cells after 30 mins by liquid scintillation counting; assay type: cell-based
in vitro [3] = details: Sprague-Dawley, rat, hepatocytes
LLC-PK1 = details: pig
Description: Permeability across pig LLC-PK1 cell line overexpressing human MDR1 at 3 hrs by LC/MS analysis

[4] = Plasma protein binding in human at 5 uM by LC/MS/MS analysis; assay type: ADME, cell-free; details: read-out: PPB (converted)
[5] = Tmax in Wistar rat; assay type: ADME, organism-based; details: in vivo
Cytochrome P450 2D6 = Cytochrome P450 2D6 (Homo sapiens, UniProt P10635); experiment: Inhibition of CYP 2D6; assay type: ADME
Cytochrome P450 2C19 = Cytochrome P450 2C19 (Homo sapiens, UniProt P33261); experiment: Inhibition of CYP 2C19; assay type: ADME
[6] = Half life in Wistar rat plasma at 1 mg/kg, iv; assay type: ADME, organism-based; set-up: dose 1 mg/kg, route intravenous
[7] = Fraction unbound in rat brain homogenate at 1 uM after 6 hrs by […]; assay type: ADME, tissue-based
Cytochrome P450 1A2 = Cytochrome P450 1A2 (Homo sapiens, UniProt P05177); experiment: Inhibition of CYP 1A2; assay type: ADME
Cytochrome P450 3A4 = Cytochrome P450 3A4 (Homo sapiens, UniProt P08684); experiment: Inhibition of CYP 3A4; assay type: ADME
[8] = Half life in Wistar rat plasma at 10 mg/kg, po; assay type: ADME, organism-based; set-up: dose 10 mg/kg, route oral
[9] = molecular target: 5-hydroxytryptamine receptor 2B (Homo sapiens, UniProt P41595); experiment: Inhibition of human 5-HT2B receptor
[10] = Oral bioavailability in Wistar rat at 10 mg/kg; assay type: ADME, organism-based; details: in vivo
[11] = molecular target: Voltage-gated inwardly rectifying potassium channel KCNH2 (Homo sapiens, UniProt Q12809)
Cytochrome P450 2C9 = Cytochrome P450 2C9 (Homo sapiens, UniProt P11712); experiment: Inhibition of CYP 2C9; assay type: ADME
[12] = Ratio of drug level in brain to plasma in Wistar rat at 10 mg/kg, po; assay type: ADME, organism-based; set-up: dose 10 mg/kg, route oral; details: brain and plasma
Cavia porcellus [13] = experiment: Cardiotoxicity in telemetered conscious freely moving Dunkin-Hartley guinea pig assessed as prolongation of electrocardiographic QTc interval at 100 mg/kg, sc administered for 120 mins; assay type: toxicity, organism-based; set-up: dose 100 mg/kg, route subcutaneous; details: in vivo, 2 h
[14] = Bioavailability in Wistar rat at 10 mg/kg, ip; assay type: ADME, organism-based; details: in vivo
[15] = Inhibition of human sigma receptor
[16] = molecular target: Muscarinic acetylcholine receptor M3 (Homo sapiens, UniProt P20309); experiment: Inhibition of human muscarinic M3 receptor
[17] = molecular target: Muscarinic acetylcholine receptor M1 (Homo sapiens, UniProt P11229); experiment: Inhibition of human muscarinic M1 receptor
[18] = molecular target: Muscarinic acetylcholine receptor M5 (Homo sapiens, UniProt P08912); experiment: Inhibition of human muscarinic M5 receptor
[19] = molecular target: 5-hydroxytryptamine receptor 1D (Homo sapiens, UniProt P28221); experiment: Inhibition of human 5-HT1D receptor
[20] = molecular target: 5-hydroxytryptamine receptor 3A (Homo sapiens, UniProt P46098); experiment: Inhibition of human 5-HT3 receptor
[21] = molecular target: Muscarinic acetylcholine receptor M4 (Homo sapiens, UniProt P08173); experiment: Inhibition of human muscarinic M4 receptor
[22] = molecular target: T1, 5-hydroxytryptamine receptor 1A (Homo sapiens, UniProt P08908); experiment: Inhibition of human 5-HT1A receptor
T1 sequence (P08908 whole entry): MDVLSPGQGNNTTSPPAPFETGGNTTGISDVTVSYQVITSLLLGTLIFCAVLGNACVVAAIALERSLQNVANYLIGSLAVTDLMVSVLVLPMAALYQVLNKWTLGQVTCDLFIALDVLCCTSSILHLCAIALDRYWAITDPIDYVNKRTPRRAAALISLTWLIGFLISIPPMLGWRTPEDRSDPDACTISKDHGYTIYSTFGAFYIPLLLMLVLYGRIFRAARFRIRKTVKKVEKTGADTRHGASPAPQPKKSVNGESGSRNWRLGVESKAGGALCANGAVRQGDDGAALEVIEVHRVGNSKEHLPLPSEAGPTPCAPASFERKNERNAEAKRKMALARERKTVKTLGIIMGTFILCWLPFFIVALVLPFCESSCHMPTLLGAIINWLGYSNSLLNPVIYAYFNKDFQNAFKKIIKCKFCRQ

Cavia porcellus [23] = experiment: Cardiotoxicity in telemetered conscious freely moving Dunkin-Hartley guinea pig assessed as prolongation of electrocardiographic QTc interval at 10 mg/kg, po measured up to 120 mins; assay type: toxicity, organism-based; set-up: dose 10 mg/kg, route oral; details: in vivo, 2 h
Cavia porcellus [24] = experiment: Cardiotoxicity in telemetered conscious freely moving Dunkin-Hartley guinea pig assessed as prolongation of electrocardiographic QTc interval at 50 mg/kg, po measured up to 120 mins; assay type: toxicity, organism-based; set-up: dose 50 mg/kg, route oral; details: in vivo, 2 h
[25] = Plasma protein binding in rat at 5 uM by LC/MS/MS analysis; assay type: ADME, cell-free; details: read-out: PPB (converted)
[26] = molecular target: Muscarinic acetylcholine receptor M2 (Homo sapiens, UniProt P08172); experiment: Inhibition of human muscarinic M2 receptor
D(2) dopamine receptor = D(2) dopamine receptor (Homo sapiens, UniProt P14416); experiment: Inhibition of human dopamine D2 receptor
[27] = molecular target: 5-hydroxytryptamine receptor 2C (Homo sapiens, UniProt P28335); experiment: Inhibition of human 5-HT2C receptor
[28] = molecular target: 5-hydroxytryptamine receptor 7 (Homo sapiens, UniProt P34969); experiment: Inhibition of human 5-HT7 receptor
[29] = molecular target: 5-hydroxytryptamine receptor 2A (Homo sapiens, UniProt P28223); experiment: Inhibition of human 5-HT2A receptor
5-hydroxytryptamine receptor 2A, sequence (P28223 whole entry): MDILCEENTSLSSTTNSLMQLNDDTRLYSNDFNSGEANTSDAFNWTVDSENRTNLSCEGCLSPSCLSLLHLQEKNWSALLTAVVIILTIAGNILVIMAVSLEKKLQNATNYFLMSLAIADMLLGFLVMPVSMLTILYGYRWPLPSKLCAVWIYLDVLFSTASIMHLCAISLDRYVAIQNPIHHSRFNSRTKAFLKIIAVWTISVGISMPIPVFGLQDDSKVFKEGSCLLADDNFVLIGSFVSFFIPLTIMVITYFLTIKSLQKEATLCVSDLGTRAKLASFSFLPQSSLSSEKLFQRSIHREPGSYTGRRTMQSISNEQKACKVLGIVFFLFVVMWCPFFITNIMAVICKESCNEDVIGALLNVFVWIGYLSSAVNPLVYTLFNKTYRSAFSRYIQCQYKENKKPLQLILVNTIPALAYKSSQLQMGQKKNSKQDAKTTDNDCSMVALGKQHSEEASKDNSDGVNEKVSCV

5-hydroxytryptamine receptor 1D, sequence (P28221 whole entry): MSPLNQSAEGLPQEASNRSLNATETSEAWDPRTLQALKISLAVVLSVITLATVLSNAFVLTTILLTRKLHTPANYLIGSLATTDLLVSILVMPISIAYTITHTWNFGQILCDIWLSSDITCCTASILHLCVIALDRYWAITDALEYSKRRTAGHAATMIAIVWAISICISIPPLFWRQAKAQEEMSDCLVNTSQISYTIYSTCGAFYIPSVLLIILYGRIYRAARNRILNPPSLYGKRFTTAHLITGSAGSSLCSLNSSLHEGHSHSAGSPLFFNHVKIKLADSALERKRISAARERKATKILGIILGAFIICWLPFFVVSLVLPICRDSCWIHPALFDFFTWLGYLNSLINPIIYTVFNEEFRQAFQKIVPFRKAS
Voltage-gated inwardly rectifying potassium channel KCNH2, sequence (Q12809 whole entry): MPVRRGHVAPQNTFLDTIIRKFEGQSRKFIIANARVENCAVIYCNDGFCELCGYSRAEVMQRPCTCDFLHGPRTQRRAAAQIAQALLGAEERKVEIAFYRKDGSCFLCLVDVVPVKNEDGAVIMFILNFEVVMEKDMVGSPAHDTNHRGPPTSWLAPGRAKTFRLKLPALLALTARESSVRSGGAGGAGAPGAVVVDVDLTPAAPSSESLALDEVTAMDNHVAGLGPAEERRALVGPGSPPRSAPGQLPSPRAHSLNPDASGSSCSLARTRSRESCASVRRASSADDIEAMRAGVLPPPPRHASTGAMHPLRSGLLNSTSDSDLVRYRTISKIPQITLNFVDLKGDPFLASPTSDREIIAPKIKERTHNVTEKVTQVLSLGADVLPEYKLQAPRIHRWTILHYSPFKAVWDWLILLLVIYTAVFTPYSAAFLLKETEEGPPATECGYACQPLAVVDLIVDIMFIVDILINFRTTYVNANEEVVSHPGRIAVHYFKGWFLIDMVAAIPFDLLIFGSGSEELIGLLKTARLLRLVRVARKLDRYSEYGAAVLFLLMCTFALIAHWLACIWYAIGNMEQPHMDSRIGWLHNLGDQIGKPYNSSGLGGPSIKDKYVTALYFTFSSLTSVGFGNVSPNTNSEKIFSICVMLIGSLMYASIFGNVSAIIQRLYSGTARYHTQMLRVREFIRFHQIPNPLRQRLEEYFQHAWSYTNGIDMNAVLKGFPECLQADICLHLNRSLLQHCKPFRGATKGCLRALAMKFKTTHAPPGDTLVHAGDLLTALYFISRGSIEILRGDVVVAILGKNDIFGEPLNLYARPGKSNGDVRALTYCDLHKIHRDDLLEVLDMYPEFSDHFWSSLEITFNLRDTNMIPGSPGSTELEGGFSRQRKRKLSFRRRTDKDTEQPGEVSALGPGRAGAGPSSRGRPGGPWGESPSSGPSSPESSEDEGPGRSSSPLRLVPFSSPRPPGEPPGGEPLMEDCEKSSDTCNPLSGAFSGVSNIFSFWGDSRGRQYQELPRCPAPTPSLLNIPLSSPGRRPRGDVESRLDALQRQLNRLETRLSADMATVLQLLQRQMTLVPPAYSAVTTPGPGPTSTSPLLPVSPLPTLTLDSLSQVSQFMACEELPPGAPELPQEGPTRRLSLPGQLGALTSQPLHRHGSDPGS
5-hydroxytryptamine receptor 6, sequence (P50406 whole entry): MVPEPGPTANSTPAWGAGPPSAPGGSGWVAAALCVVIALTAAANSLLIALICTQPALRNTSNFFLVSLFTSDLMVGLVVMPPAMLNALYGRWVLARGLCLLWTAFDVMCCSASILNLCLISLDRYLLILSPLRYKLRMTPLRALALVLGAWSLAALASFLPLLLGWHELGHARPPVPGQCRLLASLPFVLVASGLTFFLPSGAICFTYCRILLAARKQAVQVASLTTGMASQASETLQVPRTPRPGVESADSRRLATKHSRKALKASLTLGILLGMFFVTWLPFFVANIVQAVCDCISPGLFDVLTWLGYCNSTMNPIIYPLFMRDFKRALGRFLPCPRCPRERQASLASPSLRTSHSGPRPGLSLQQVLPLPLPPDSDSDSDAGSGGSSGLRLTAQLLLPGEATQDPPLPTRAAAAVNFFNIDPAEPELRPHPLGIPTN
5-hydroxytryptamine receptor 2C, sequence (P28335 whole entry): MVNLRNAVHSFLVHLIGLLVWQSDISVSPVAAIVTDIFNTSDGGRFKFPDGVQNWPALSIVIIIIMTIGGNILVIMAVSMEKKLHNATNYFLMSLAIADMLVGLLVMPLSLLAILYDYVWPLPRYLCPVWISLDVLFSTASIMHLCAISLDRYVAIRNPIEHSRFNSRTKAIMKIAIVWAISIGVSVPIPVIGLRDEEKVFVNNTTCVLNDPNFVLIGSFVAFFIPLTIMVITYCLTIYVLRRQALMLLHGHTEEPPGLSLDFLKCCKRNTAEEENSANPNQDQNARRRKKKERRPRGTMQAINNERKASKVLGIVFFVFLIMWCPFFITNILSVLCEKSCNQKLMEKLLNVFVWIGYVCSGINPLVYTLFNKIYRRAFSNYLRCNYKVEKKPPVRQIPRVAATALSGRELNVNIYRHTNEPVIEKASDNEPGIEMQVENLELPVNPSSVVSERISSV
D(2) dopamine receptor, sequence (P14416 whole entry): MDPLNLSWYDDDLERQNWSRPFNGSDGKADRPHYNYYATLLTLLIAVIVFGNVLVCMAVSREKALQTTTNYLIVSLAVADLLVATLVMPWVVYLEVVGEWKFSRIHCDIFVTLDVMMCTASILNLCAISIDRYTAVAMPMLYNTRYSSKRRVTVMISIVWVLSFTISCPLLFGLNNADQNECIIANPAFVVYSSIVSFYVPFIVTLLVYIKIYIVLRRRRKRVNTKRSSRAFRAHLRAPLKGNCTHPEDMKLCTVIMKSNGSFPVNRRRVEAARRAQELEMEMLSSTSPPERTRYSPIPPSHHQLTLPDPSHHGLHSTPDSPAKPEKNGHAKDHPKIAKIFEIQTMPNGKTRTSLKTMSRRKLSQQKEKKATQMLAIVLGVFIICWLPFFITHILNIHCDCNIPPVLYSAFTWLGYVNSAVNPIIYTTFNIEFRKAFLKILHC
5-hydroxytryptamine receptor 7, sequence (P34969 whole entry): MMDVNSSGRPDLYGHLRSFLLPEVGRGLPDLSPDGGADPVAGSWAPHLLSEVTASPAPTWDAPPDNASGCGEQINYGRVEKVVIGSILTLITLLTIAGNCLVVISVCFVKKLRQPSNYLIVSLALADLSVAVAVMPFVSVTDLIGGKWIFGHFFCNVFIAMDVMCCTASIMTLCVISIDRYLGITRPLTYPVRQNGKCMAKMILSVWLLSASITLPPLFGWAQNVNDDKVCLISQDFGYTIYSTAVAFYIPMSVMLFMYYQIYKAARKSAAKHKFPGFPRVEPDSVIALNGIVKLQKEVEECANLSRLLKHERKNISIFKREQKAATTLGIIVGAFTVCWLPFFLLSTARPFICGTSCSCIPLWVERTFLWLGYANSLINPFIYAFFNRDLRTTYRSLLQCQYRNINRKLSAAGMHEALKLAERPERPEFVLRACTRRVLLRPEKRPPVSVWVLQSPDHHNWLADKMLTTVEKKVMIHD
Cytochrome P450 3A4, sequence (P08684 whole entry): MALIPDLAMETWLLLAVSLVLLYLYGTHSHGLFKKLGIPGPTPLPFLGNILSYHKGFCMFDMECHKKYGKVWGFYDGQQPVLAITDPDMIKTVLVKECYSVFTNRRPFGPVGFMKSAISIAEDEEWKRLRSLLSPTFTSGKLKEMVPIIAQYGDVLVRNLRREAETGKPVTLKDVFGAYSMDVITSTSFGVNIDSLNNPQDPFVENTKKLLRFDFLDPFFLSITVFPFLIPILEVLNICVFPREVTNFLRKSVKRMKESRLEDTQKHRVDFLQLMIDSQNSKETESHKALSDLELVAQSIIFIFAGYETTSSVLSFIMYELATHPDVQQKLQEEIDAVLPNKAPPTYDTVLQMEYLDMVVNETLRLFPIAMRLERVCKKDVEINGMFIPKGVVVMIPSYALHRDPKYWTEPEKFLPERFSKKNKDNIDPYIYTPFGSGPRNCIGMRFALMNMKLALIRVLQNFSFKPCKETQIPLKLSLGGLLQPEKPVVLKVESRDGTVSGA
Muscarinic acetylcholine receptor M3, sequence (P20309 whole entry): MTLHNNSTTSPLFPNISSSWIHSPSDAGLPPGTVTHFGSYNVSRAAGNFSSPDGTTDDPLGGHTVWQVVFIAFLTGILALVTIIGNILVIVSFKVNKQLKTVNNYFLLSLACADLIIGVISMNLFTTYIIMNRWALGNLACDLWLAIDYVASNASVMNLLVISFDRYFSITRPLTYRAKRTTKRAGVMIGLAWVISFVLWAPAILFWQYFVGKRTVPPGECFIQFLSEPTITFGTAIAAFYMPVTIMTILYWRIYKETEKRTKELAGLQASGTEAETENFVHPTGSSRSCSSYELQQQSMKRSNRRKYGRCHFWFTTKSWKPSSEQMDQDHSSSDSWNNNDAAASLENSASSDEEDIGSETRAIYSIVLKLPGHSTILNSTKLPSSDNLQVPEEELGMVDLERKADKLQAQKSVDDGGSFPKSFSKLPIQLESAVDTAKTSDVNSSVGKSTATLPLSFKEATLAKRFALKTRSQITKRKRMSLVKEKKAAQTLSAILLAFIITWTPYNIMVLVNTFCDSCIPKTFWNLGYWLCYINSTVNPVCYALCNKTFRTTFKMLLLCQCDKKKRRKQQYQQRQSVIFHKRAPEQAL

hepatocyte CLint at 1 ug/mL (in vitro [1]) | Ki [2] | hepatocyte CLint at 1 ug/mL (in vitro [3]) | Structure (SMILES) | other results
39 µL/min/1e6 cells | 0.0278 µM | 99 µL/min/1e6 cells | CCN/C(=N\S(=O)(=O)c1ccccc1Cl)N1CC(CC)C=N1 (stereo unspecified) | –
– | 0.092 µM | – | CCC1C=NN(/C(=N/S(=O)(=O)c2ccccc2Cl)NCc2ccccc2)C1 (stereo unspecified) | –
– | > 1 µM | – | CCC1C=NN(/C(=N/S(=O)(=O)c2ccccc2Cl)Nc2ccccc2)C1 (stereo unspecified) | –
– | > 1 µM | – | CCC1C=NN(/C(=N/S(=O)(=O)c2ccccc2Cl)NC(C)C)C1 (stereo unspecified) | –
– | 0.0339 µM | – | CCN/C(=N\S(=O)(=O)c1ccccc1)N1CC(CC)C=N1 (stereo unspecified) | –
– | 0.0146 µM | – | CCCN/C(=N\S(=O)(=O)c1cccc(Cl)c1)N1CC(CC)C=N1 (stereo unspecified) | –
– | 0.0242 µM | – | CCC1C=NN(/C(N)=N/S(=O)(=O)c2cccc(Cl)c2)C1 (stereo unspecified) | –
– | 0.008 µM | – | CCN/C(=N\S(=O)(=O)c1cccc(Cl)c1)N1CC(C)C=N1 (stereo unspecified) | –
– | 0.0339 µM | – | CCN/C(=N\S(=O)(=O)c1cccc(Cl)c1)N1CCC=N1 | –
– | 0.231 µM | – | CCN/C(=N\S(=O)(=O)c1cccc(Cl)c1)N1CCC(C)=N1 | –
– | > 1 µM | – | CCC1C=NN(/C(=N/S(=O)(=O)c2cccc(Cl)c2)N(C)C)C1 (stereo unspecified) | –
107 µL/min/1e6 cells | – | 116 µL/min/1e6 cells | CCN=C(NS(=O)(=O)c1cccc(Cl)c1)N1N=CC[C@H]1c1ccccc1 | –
– | – | 107 µL/min/1e6 cells | CCN=C(NS(=O)(=O)c1cccc(Cl)c1)N1N=CC[C@@H]1c1ccccc1 | –
27 µL/min/1e6 cells | 0.0179 µM | 116 µL/min/1e6 cells | CCN/C(=N\S(=O)(=O)c1cccc(C(F)(F)F)c1)N1CC(CC)C=N1 (stereo unspecified) | –
51 µL/min/1e6 cells | 0.0274 µM | 116 µL/min/1e6 cells | CCN/C(=N\S(=O)(=O)c1cccc(C)c1)N1CC(CC)C=N1 (stereo unspecified) | –
46 µL/min/1e6 cells | 0.0266 µM | 92 µL/min/1e6 cells | CCN/C(=N\S(=O)(=O)c1cccc(OC)c1)N1CC(CC)C=N1 (stereo unspecified) | –
92 µL/min/1e6 cells | 0.0079 µM | 198 µL/min/1e6 cells | CCN/C(=N\S(=O)(=O)c1ccc(Cl)c(Cl)c1)N1CC(CC)C=N1 (stereo unspecified) | –
– | 0.119 µM | 116 µL/min/1e6 cells | CCN/C(=N\S(=O)(=O)c1cc(Cl)ccc1Cl)N1CC(CC)C=N1 (stereo unspecified) | –

hepatocyte CLint at 1 ug/mL (in vitro [1]) | Ki [2] | hepatocyte CLint at 1 ug/mL (in vitro [3]) | Structure (SMILES) | other results
– | 0.197 µM | 126 µL/min/1e6 cells | CCN/C(=N\S(=O)(=O)c1c(Cl)cccc1Cl)N1CC(CC)C=N1 (stereo unspecified) | –
36 µL/min/1e6 cells | 0.0027 µM | 116 µL/min/1e6 cells | CCN/C(=N\S(=O)(=O)c1cccc(Cl)c1F)N1CC(CC)C=N1 (stereo unspecified) | –
41 µL/min/1e6 cells | 0.0172 µM | 139 µL/min/1e6 cells | CCN/C(=N\S(=O)(=O)c1ccc2ccccc2c1)N1CC(CC)C=N1 (stereo unspecified) | –
– | 0.0085 µM | – | CCNC(=N[S+]([O-])c1sc2ccc(Cl)cc2c1C)N1CC(CC)C=N1 (stereo unspecified) | –
20 µL/min/1e6 cells | 0.0079 µM | 116 µL/min/1e6 cells | CCN/C(=N\S(=O)(=O)c1c(Cl)nc2sccn12)N1CC(CC)C=N1 (stereo unspecified) | –
11 µL/min/1e6 cells | – | 53 µL/min/1e6 cells | CCN/C(=N\S(=O)(=O)c1c(C)nn(C)c1Cl)N1CC(CC)C=N1 (stereo unspecified) | –
4 µL/min/1e6 cells | – | 20 µL/min/1e6 cells | CCN/C(=N\S(=O)(=O)c1ccc(S(C)(=O)=O)cc1)N1CC(CC)C=N1 (stereo unspecified) | –
– | 0.0241 µM | – | CCN/C(=N\S(=O)(=O)c1cccc(Cl)c1)N1CC(C)(C)C=N1 | permeability (LLC-PK1; llc-pk1, 3 h): 41%; fraction unbound at 5 µM [4]: 0.37; Tmax [5]: 0.5 h; IC50 (Cytochrome P450 2D6): > 10 µM; IC50 (Cytochrome P450 2C19): > 10 µM; half-life [6]: 2 h; fraction unbound at 6 h, 1 µM [7]: 0.01; IC50 (Cytochrome P450 1A2): > 10 µM; IC50 (Cytochrome P450 3A4): > 10 µM; half-life [8]: 2 h; Ki [9]: 7.94 µM; bioavailability [10]: 7%; IC50 [11]: > 10 µM; IC50 (Cytochrome P450 2C9): > 10 µM; Kp [12]: 1; Activity (Cavia porcellus [13]): Non-toxic; bioavailability [14]: 45%
– | 0.0064 µM | – | CCN/C(=N\S(=O)(=O)c1cccc(Cl)c1)N1CC2(C=N1)CCCC2 | –
– | 0.0052 µM | – | CCN/C(=N\S(=O)(=O)c1cccc(Cl)c1)N1CC2(C=N1)CCCCC2 | –
3 µL/min/1e6 cells | – | 25 µL/min/1e6 cells | CCN/C(=N\S(=O)(=O)c1cccc(Cl)c1)N1CC2(C=N1)CCNCC2 | permeability (LLC-PK1; llc-pk1, 3 h): 14.7%; pKi [15]: 5; Ki [16]: 10 µM; fraction unbound at 5 µM [4]: 0.34; Ki [17]: 10 µM; Ki [18]: 10 µM; Ki ([19]; read-out: pKi (converted)): 10 µM; Ki [20]: 10 µM; Ki [21]: 10 µM; Ki ([22]; read-out: pKi (converted)): 10 µM; Activity (Cavia porcellus [23]): Non-toxic; Activity (Cavia porcellus [24]): Toxic; fraction unbound at 5 µM [25]: 0.41; Ki [26]: 10 µM; IC50 [11]: 7.94 µM
– | 0.092 µM | – | CCN=C(NS(=O)(=O)c1cccc(Cl)c1)N1CC(CF)(CF)C=N1 | –
– | – | – | CCN/C(=N\S(=O)(=O)c1cccc(Cl)c1)N1CC(CC)C=N1 (racemic) | Ki (D(2) dopamine receptor): > 1 µM; Ki ([19]; read-out: Ki): > 1 µM; Ki [27]: > 1 µM; Ki ([22]; read-out: Ki): > 1 µM; Ki [28]: > 1 µM; Ki [29]: > 1 µM
73 µL/min/1e6 cells | – | 116 µL/min/1e6 cells | CCN/C(=N\S(=O)(=O)c1cccc(Cl)c1)N1N=CCC1c1ccccc1 (racemic) | permeability (LLC-PK1; LLC-PK1, 3 h): 38.5%; Ki (D(2) dopamine receptor): > 1 µM; Ki ([19]; read-out: Ki): > 1 µM; Ki [27]: > 1 µM; Ki ([22]; read-out: Ki): > 1 µM; Ki [28]: > 1 µM; IC50 [11]: > 10 µM; Ki [29]: > 1 µM
50 µL/min/1e6 cells | 0.322 µM | 87 µL/min/1e6 cells | CCN/C(=N\S(=O)(=O)c1cccc(Cl)c1)N1N=CCC1c1ccncc1 (racemic) | –
92 µL/min/1e6 cells | 0.0082 µM | 198 µL/min/1e6 cells | CCN/C(=N\S(=O)(=O)c1cccc(Cl)c1)N1N=CCC1c1ccco1 (racemic) | –
107 µL/min/1e6 cells | 0.138 µM | 126 µL/min/1e6 cells | CCN=C(NS(=O)(=O)c1cccc(Cl)c1)N1N=CCC1c1ccc(F)cc1 (racemic) | –

Structure (SMILES) | hepatocyte CLint at 1 ug/mL (in vitro [1]) | Ki [2] | hepatocyte CLint at 1 ug/mL (in vitro [3]) | other results
CCC1C=NN(/C(=N/S(=O)(=O)c2cccc(Cl)c2)NC)C1 (stereo unspecified) | – | 0.0178 µM | – | –
CCN/C(=N\S(=O)(=O)c1cccc(Cl)c1)N1CC(CC)(CC)C=N1 | – | 0.0499 µM | – | –
